The values below come from US11377444B2, “Pyridopyrimidine compounds acting as mTORC 1/2 dual inhibitors” (MEDSHINE DISCOVERY INC., priority 2017, dated 2022).

The Kd is the constant that tells how readily two partners part at equilibrium. Higher therefore signals weaker binding.

The test concerns the target T1, mTOR kinase (mTORC1 and mTORC2 kinase complex) (Homo sapiens, UniProt P42345).
T1 construct: purchased DiscoverX; host or cells: HEK-293
Put plainly: In vitro evaluation of mTOR kinase inhibitory activity (DiscoverX ligand-bead competition binding, qPCR readout). As to the method: Experimental Embodiment 1: In Vitro Evaluation of mTOR Kinase Inhibitory Activity This experiment was performed by DiscoverX. All materials and methods were obtained from DiscoverX.
Kinase activity analysis.
1. Labeled mTOR kinase was stably expressed in HEK-293 cells.
2. Streptavidin magnetic beads were treated with biotinylated small molecule ligands at room temperature for 30 minutes to produce affinity resin for kinase analysis;
3. Ligand beads were blocked with excess biotin and washed with buffer (1% bovine serum albumin, […]) to remove unbound ligand and non-specifically bound ligand;
4. The assembly of kinase and ligand and affinity beads, and the binding reaction between the compound and the three were performed in buffer (20% blocking buffer, 0.17x phosphate buffer, 0.05% Tween […]);
5. The test compounds were dissolved in dimethyl sulfoxide;
6. All test compounds were dissolved in DMSO, and then directly diluted […]
7. The solution was placed in a 384-well polypropylene plate, wherein the volume of each well was 0.02 mL;
8. The plate was shaked for an hour at room temperature;
9. The plate was washed with buffer (1× PBS, 0.05% Tween 20);
10. The affinity beads were resuspended in buffer (1× PBS, 0.05% Tween […] non-biotin affinity ligand) and incubated at room temperature for 30 minutes;
11. The kinase concentration in the eluate was deteced by qPCR.
For orientation: Real-time PCR tracks product formation cycle by cycle.

As to `CNC(=O)c1cccc(-c2ccc3c(N4CCOCC4C)nc(N4CCOC5CC54)nc3n2)c1` (single isomer, unassigned) [Embodiment 18-1], the Kd worked out at 3 nM.
The same measure for `CNC(=O)c1cccc(-c2ccc3c(N4CCOCC4C)nc(N4CCOC5CC54)nc3n2)c1` (single isomer, unassigned) [Embodiment 18-2]: 0.5 nM.
`CNC(=O)c1cccc(-c2ccc3c(N4CCOCC4C)nc(N4CCOC5(CCSC5)C4)nc3n2)c1` (single isomer, unassigned) [Embodiment 45-1] showed a Kd of 0.5 nM.
With `CNC(=O)c1cccc(-c2ccc3c(N4CCOCC4C)nc(N4CCOC5(CCSC5)C4)nc3n2)c1` (single isomer, unassigned) [Embodiment 45-2], the Kd turned out to be 1.7 nM. Against the preceding molecule, the Kd is about 3.4-fold higher.
To `CNC(=O)c1cccc(-c2ccc3c(N4CCOCC4C)nc(N4CCOC5(CC[S+]([O-])C5)C4)nc3n2)c1` (single isomer, unassigned) [Embodiment 46-1] belongs 1 nM.
`CNC(=O)c1cccc(-c2ccc3c(N4CCOCC4C)nc(N4CCOC5(CC[S+]([O-])C5)C4)nc3n2)c1` (single isomer, unassigned) [Embodiment 46-2] showed a Kd of 4.9 nM.
Molecule `CNC(=O)c1cccc(-c2ccc3c(N4CCOCC4C)nc(N4CCOC5(CCS(=O)(=O)C5)C4)nc3n2)c1` (single isomer, unassigned) [Embodiment 47-1] came in with a Kd of 7.9 nM.
The same measure for `CNC(=O)c1cccc(-c2ccc3c(N4CCOCC4C)nc(N4CCOC5(CCS(=O)(=O)C5)C4)nc3n2)c1` (single isomer, unassigned) [Embodiment 47-2]: 7.9 nM.
Regarding `CNC(=O)c1cccc(-c2ccc3c(N4CCOCC4C)nc(N4CC5(CCOC5)OCC4C)nc3n2)c1` (single isomer, unassigned) [Embodiment 48-1], the dissociation constant (Kd) was 1.8 nM.
The same measure for `CC1COCCN1c1nc(N2CCOC3(CCOC3)C2)nc2nc(-c3cccc(C(N)=O)c3)ccc12` (single isomer, unassigned) [Embodiment 50-1]: 1.9 nM.
The same measure for `CNC(=O)c1cccc(-c2ccc3c(N4CCOCC4C)nc(N4CCOC5(CNC(=O)C5)C4)nc3n2)c1` (single isomer, unassigned) [Embodiment 53-1]: 1.1 nM.
The molecule `CNC(=O)c1cccc(-c2ccc3c(N4CCOCC4C)nc(N4CCOC5(CNC(=O)C5)C4)nc3n2)c1` (single isomer, unassigned) [Embodiment 53-2] showed a Kd of 1.8 nM. This Kd is about 1.6-fold higher than that of the molecule before.
For `CNC(=S)c1cccc(-c2ccc3c(N4CCOC[C@@H]4C)nc(N4CCOC5(CC5)C4)nc3n2)c1` [Embodiment 2], the Kd amounted to 0.15 nM.
To `CONC(=O)c1cccc(-c2ccc3c(N4CCOC[C@@H]4C)nc(N4CCOC5(CC5)C4)nc3n2)c1` [Embodiment 3] belongs 0.32 nM; to `C[C@H]1COCCN1c1nc(N2CCOC3(CC3)C2)nc2nc(-c3cccc(C(=O)NO)c3)ccc12` [Embodiment 4], 0.22 nM; to `CNC(=O)c1cccc(-c2ccc3c(N4CCOC[C@@H]4C)nc(C4CCC5(CC4)OCCO5)nc3n2)c1` [Embodiment 5], 0.66 nM.
For the molecule `CNC(=O)c1cccc(-c2ccc3c(N4CCOC[C@@H]4C)nc(N4CC5(CCOCC5)C4)nc3n2)c1` [Embodiment 6], the Kd was determined as 12 nM. This Kd lies about 18-fold higher than the previous one.
As to `CNC(=O)c1cccc(-c2ccc3c(N4CCOC[C@@H]4C)nc(N4CCC5(CC4)COC5)nc3n2)c1` [Embodiment 7], the Kd is 6.4 nM. Compared with the last molecule, the Kd is about 1.9-fold lower.
To `CNC(=O)c1cccc(-c2ccc3c(N4CCOCC4C)nc(N4CCC5(CCOC5)CC4)nc3n2)c1` (stereo not shown) [Embodiment 8] belongs 5.9 nM.
To `CNC(=O)c1cccc(-c2ccc3c(N4CCOCC4C)nc(N4CCC5(CC4)CC5)nc3n2)c1` (stereo not shown) [Embodiment 10] belongs 7.8 nM; to `Nc1nc2cc(-c3ccc4c(N5C6CCC5COC6)nc(N5CCOC6(CC6)C5)nc4n3)ccc2o1` [Embodiment 11], 1.2 nM.
The same measure for `C[C@H]1COCCN1c1nc(N2CCOC3(CC3)C2)nc2nc(-c3ccc4ccc(N)nc4c3)ccc12` [Embodiment 14]: 0.25 nM.
